Data taken from the NIST ThermoML archive (doi:10.1021/acs.jced.7b01026).
Numbers after ± are expanded uncertainties.

How the values were obtained:
[1] = Crystal; DTA
[2] = Molar enthalpy of transition or fusion; conditions: Crystal; DSC
[3] = molar heat capacity at constant pressure
[4] = Boiling temperature at pressure P; conditions: 100 kPa; Glass; DTA

COc1cccc(OC)c1O [1,3-dimethoxy-2-hydroxybenzene]
Conditions	Molar enthalpy of transition or fusion [kcal/mol]	Normal melting temperature [°C]
[1]	–	53.2 ± 2
[2]	12 ± 0.43	–

[3], 101.33 kPa, Liquid, DSC
Conditions	molar heat capacity at constant pressure [J/K/mol]
333.16 K	317.27 ± 13
373.15 K	328.21 ± 13
413.14 K	333.46 ± 14
453.12 K	347.18 ± 14
493.1 K	357.35 ± 14

CCC(O)c1ccccc1 (stereo not given) [1-phenyl-1-propanol]
Conditions	Boiling temperature at pressure P [°C]	Normal melting temperature [°C]
[1]	–	-10.6 ± 2
[4]	-74.3 ± 2	–

[3], 101.33 kPa, Liquid, DSC
Conditions	molar heat capacity at constant pressure [J/K/mol]
273.15 K	279.6 ± 11
323.15 K	319.91 ± 13
373.15 K	338.03 ± 14
423.15 K	352.6 ± 14
473.15 K	368.94 ± 15

CC(O)Cc1ccccc1 (stereo not given) [1-phenyl-2-propanol]
Conditions	Boiling temperature at pressure P [°C]
[4]	-72.5 ± 2

[3], 101.33 kPa, Liquid, DSC
Conditions	molar heat capacity at constant pressure [J/K/mol]
273.15 K	282.05 ± 11
323.15 K	311.06 ± 13
373.15 K	329.31 ± 13
423.15 K	345.52 ± 14
473.15 K	354.78 ± 14

CCCOCC(C)O (stereo not given) [1-propoxy-2-propanol]
[3], 101.33 kPa, Liquid, DSC
Conditions	molar heat capacity at constant pressure [J/K/mol]
193.19 K	237.41 ± 9.7
223.15 K	247.93 ± 10
273.16 K	271.09 ± 11
323.16 K	290.12 ± 12
373.15 K	314.7 ± 13

FC(F)C(F)(F)C(F)(F)C(F)(F)C(F)(F)C(F)(F)C(F)(F)C(F)(F)F [1H-perfluorooctane]
Conditions	Molar enthalpy of transition or fusion [kcal/mol]	Normal melting temperature [°C]
[1]	–	-18.8 ± 2
[2]	2.36 ± 1	–

[3], 101.33 kPa, Liquid, DSC
Conditions	molar heat capacity at constant pressure [J/K/mol]
258.16 K	446.11 ± 18
273.16 K	458.71 ± 18
298.16 K	480.14 ± 19
323.16 K	494.84 ± 20
373.14 K	526.76 ± 21

Cc1ccc(C)o1 [2,5-dimethylfuran]
[3], 101.33 kPa, Liquid, DSC
Conditions	molar heat capacity at constant pressure [J/K/mol]
213.15 K	159.28 ± 6.4
253.15 K	163.99 ± 6.6
293.15 K	170.63 ± 6.9
333.15 K	184.95 ± 7.5

CC(C)c1ccccc1O [2-(1-methylethyl)phenol]
Conditions	Molar enthalpy of transition or fusion [kcal/mol]	Normal melting temperature [°C]
[1]	–	12 ± 4
[2]	2.62 ± 0.335	–

molar heat capacity at constant pressure [J/K/mol], [3], 101.33 kPa
Conditions	273.15 K	323.15 K	373.15 K	423.15 K	473.15 K
DSC, Liquid	–	307.38 ± 13	321.55 ± 13	337.89 ± 14	354.37 ± 14
Metastable liquid, DSC	281.92 ± 11	–	–	–	–

C/C=C/c1ccc(O)c(OC)c1 [2-methoxy-4-(1E)-1-propen-1-yl-phenol]
Conditions	Molar enthalpy of transition or fusion [kcal/mol]	Normal melting temperature [°C]
[1]	–	21.6 ± 2
[2]	2.8 ± 0.406	–

[3], 101.33 kPa, Liquid, DSC
Conditions	molar heat capacity at constant pressure [J/K/mol]
298.15 K	326.92 ± 13
323.15 K	336.45 ± 14
373.15 K	348.43 ± 14
423.15 K	381.6 ± 15
473.15 K	387.19 ± 16

Cc1ccccc1C=O [2-methylbenzaldehyde]
Conditions	Molar enthalpy of transition or fusion [kcal/mol]	Normal melting temperature [°C]
[1]	–	-39.7 ± 2
[2]	2.44 ± 0.287	–

[3], 101.33 kPa, Liquid, DSC
Conditions	molar heat capacity at constant pressure [J/K/mol]
238.16 K	184.43 ± 7.4
293.16 K	199.57 ± 8.2
348.15 K	217.83 ± 8.9
403.13 K	230.69 ± 9.4
458.11 K	261.08 ± 11

CC(CO)c1ccccc1 (stereo not given) [2-phenyl-1-propanol]
Conditions	Boiling temperature at pressure P [°C]
[4]	-75.5 ± 2

[3], 101.33 kPa, Liquid, DSC
Conditions	molar heat capacity at constant pressure [J/K/mol]
273.15 K	273.34 ± 11
323.15 K	300.98 ± 12
373.15 K	325.91 ± 13
423.15 K	341.98 ± 14
473.15 K	351.78 ± 14

Cc1cccc(C=O)c1 [3-methylbenzaldehyde]
Conditions	Normal melting temperature [°C]
[1]	-48.4 ± 2

[3], 101.33 kPa, Liquid, DSC
Conditions	molar heat capacity at constant pressure [J/K/mol]
273.17 K	189.47 ± 7.7
313.16 K	205.93 ± 8.4
353.15 K	219.75 ± 8.9
393.14 K	235.61 ± 9.6
453.11 K	258.08 ± 10

Cc1cccc(CO)c1 [3-methylbenzyl alcohol]
Conditions	Molar enthalpy of transition or fusion [kcal/mol]	Normal melting temperature [°C]
[1]	–	-8.8 ± 2
[2]	3.24 ± 0.287	–

[3], 101.33 kPa, DSC, Liquid
Conditions	molar heat capacity at constant pressure [J/K/mol]
266.15 K	222.22 ± 9
306.15 K	250.8 ± 10
356.15 K	281.1 ± 11
406.15 K	295.27 ± 12
456.15 K	308.1 ± 12

Cc1ccc(C=O)cc1 [4-methylbenzaldehyde]
Conditions	Molar enthalpy of transition or fusion [kcal/mol]	Normal melting temperature [°C]
[1]	–	-10.0 ± 2
[2]	2.64 ± 0.287	–

[3], 101.33 kPa, DSC, Liquid
Conditions	molar heat capacity at constant pressure [J/K/mol]
273.17 K	191.4 ± 7.8
313.16 K	204.25 ± 8.3
353.15 K	216.27 ± 8.8
393.14 K	232.37 ± 9.5
453.11 K	250.99 ± 10

Cc1ccc(C(=O)O)cc1 [4-methylbenzoic acid]
Conditions	Molar enthalpy of transition or fusion [kcal/mol]	Normal melting temperature [°C]
[1]	–	179.0 ± 2
[2]	5.14 ± 0.359	–

[3], 101.33 kPa, Liquid, DSC
Conditions	molar heat capacity at constant pressure [J/K/mol]
458.15 K	331.25 ± 13
473.15 K	338.33 ± 14
488.15 K	347.59 ± 14
503.15 K	353.98 ± 14
523.15 K	362.02 ± 15

Cc1ccc(C=O)o1 [5-methylfurfural]
Conditions	Molar enthalpy of transition or fusion [kcal/mol]	Normal melting temperature [°C]
[1]	–	-32.6 ± 2
[2]	2.76 ± 0.263	–

[3], 101.33 kPa, Liquid, DSC
Conditions	molar heat capacity at constant pressure [J/K/mol]
250.15 K	180.47 ± 7.4
300.15 K	192.47 ± 7.8
350.14 K	202.49 ± 8.3
400.13 K	219.34 ± 8.9
450.1 K	233.54 ± 9.5

CCOC(=O)Cc1ccccc1 [ethyl phenylacetate]
Conditions	Molar enthalpy of transition or fusion [kcal/mol]	Normal melting temperature [°C]
[1]	–	-29 ± 2
[2]	4.32 ± 0.382	–

[3], 101.33 kPa, Liquid, DSC
Conditions	molar heat capacity at constant pressure [J/K/mol]
253.15 K	271.75 ± 11
293.15 K	288.83 ± 12
333.15 K	292.77 ± 12
373.15 K	306.89 ± 12
413.15 K	326.27 ± 13

CCCCCCC1CCCCC1 [hexylcyclohexane]
Conditions	Molar enthalpy of transition or fusion [kcal/mol]	Normal melting temperature [°C]
[1]	–	-48.2 ± 2
[2]	4.91 ± 0.406	–

[3], 101.33 kPa, Liquid, DSC
Conditions	molar heat capacity at constant pressure [J/K/mol]
228.16 K	292.03 ± 12
288.16 K	330.24 ± 13
348.14 K	361.21 ± 15
408.13 K	408.85 ± 17
468.09 K	463.72 ± 19

CC(=O)Oc1ccccc1 [phenyl ethanoate]
Conditions	Molar enthalpy of transition or fusion [kcal/mol]	Normal melting temperature [°C]
[1]	–	-7 ± 2
[2]	3.06 ± 0.335	–

[3], 101.33 kPa, Liquid, DSC
Conditions	molar heat capacity at constant pressure [J/K/mol]
253.15 K	220.42 ± 9
293.15 K	224.78 ± 9.1
333.15 K	240.03 ± 9.8
373.15 K	255.41 ± 10
413.15 K	269.44 ± 11

CCCCCC(=O)CCCCC [undecan-6-one]
Conditions	Molar enthalpy of transition or fusion [kcal/mol]	Normal melting temperature [°C]
[1]	–	13 ± 2
[2]	7.49 ± 0.454	–

[3], 101.33 kPa, Liquid, DSC
Conditions	molar heat capacity at constant pressure [J/K/mol]
293.16 K	363.74 ± 15
343.16 K	381.62 ± 15
373.15 K	402.4 ± 16
423.13 K	422.49 ± 17
473.1 K	463.02 ± 19
